The source of these data is PubChem BioAssay (NCI).

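Cells were grown in 96-well plates and exposed to each compound for 48 hours at five concentrations; endpoints were interpolated linearly between bracketing concentrations, or set to the highest concentration if not reached. Definition used: TGI = concentration required for complete inhibition of growth.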

Test systems include KM12 colon; HOP-92 NSCLC; U251 CNS; RXF 393 renal; ACHN renal; CCRF-CEM leukemia; OVCAR-3 ovarian; NCI-H23 lung; HCT-15 colon; SR leukemia; OVCAR-5 ovarian; OVCAR-4 ovarian; MALME-3M melanoma; SK-MEL-5 melanoma; SNB-75 CNS; NCI-H522 lung; A549 NSCLC; HOP-62 NSCLC; HT29 colon.
Holding throughout (assay): inhibition of tumour cell growth, NCI panel, 48 h

Turning to `CCOC(=O)c1c(C)nc2c1c(CN(C)C)c(O)c1[nH]c(C)c(C)nc12`, the TGI is > 100 µM with KM12 colon; 96.6 µM with HOP-92 NSCLC; 68.7 µM in the assay with U251 CNS; 65.7 µM with RXF 393 renal; 69.9 µM with ACHN renal; 38.3 µM in the assay with CCRF-CEM leukemia. Also, the TGI was 85.7 µM with OVCAR-3 ovarian; 89.3 µM in the assay on NCI-H23 lung; > 100 µM in the assay on HCT-15 colon; 51.5 µM with SR leukemia; 94 µM with OVCAR-5 ovarian; > 100 µM in the assay with OVCAR-4 ovarian. The TGI is 53.4 µM in the assay on MALME-3M melanoma; 29.1 µM with SK-MEL-5 melanoma; 60.7 µM with SNB-75 CNS; 42.7 µM with NCI-H522 lung; > 100 µM with A549 NSCLC; 51 µM in the assay with HOP-62 NSCLC. The TGI with HT29 colon was determined as 81.6 µM.
With `CC(=O)Oc1cc2c(cc1OC(C)=O)OCC(c1ccccc1)C2` (stereo not given), the TGI worked out at 55.3 µM in the assay with KM12 colon; 25.3 µM in the assay with HOP-92 NSCLC; 29.5 µM in the assay on U251 CNS; 30 µM in the assay with RXF 393 renal; 15.1 µM with CCRF-CEM leukemia; 58.9 µM in the assay on OVCAR-3 ovarian. Further, the TGI in the assay on NCI-H23 lung worked out at 77.6 µM; in the assay with HCT-15 colon, 56.4 µM; in the assay on OVCAR-5 ovarian, 61.7 µM; in the assay on OVCAR-4 ovarian it was 55.4 µM; with MALME-3M melanoma, 37.9 µM; in the assay on SK-MEL-5 melanoma, 39 µM. For the same compound, the TGI came to 26.6 µM with SNB-75 CNS; 7.47 µM with NCI-H522 lung; 39.9 µM with A549 NSCLC; 54.3 µM in the assay with HOP-62 NSCLC; 98.3 µM in the assay with HT29 colon.
For the compound `Nc1ccn(C2C=C(CO)C(O)C2O)c(=O)c1` (stereo not given), the TGI with KM12 colon, in the assay with HOP-92 NSCLC, with OVCAR-3 ovarian, in the assay on HCT-15 colon, with OVCAR-4 ovarian and with SK-MEL-5 melanoma was > 625 µM throughout. The TGI in the assay with SNB-75 CNS, in the assay on A549 NSCLC, in the assay on HOP-62 NSCLC and in the assay on HT29 colon was > 625 µM in each case.
For the compound `CCCNC(=O)C(C)C1CCC2(C)C=CC(=O)C(C)=C2C1O` (stereo not given), the TGI in the assay with KM12 colon, with HOP-92 NSCLC, in the assay with U251 CNS, in the assay with RXF 393 renal, in the assay with CCRF-CEM leukemia and in the assay with OVCAR-3 ovarian was > 100 µM in each case. Also, the TGI in the assay on NCI-H23 lung, with HCT-15 colon, in the assay with OVCAR-5 ovarian, in the assay on OVCAR-4 ovarian, in the assay on SK-MEL-5 melanoma and in the assay with SNB-75 CNS was > 100 µM in each case. For the same compound, the TGI in the assay with NCI-H522 lung, with A549 NSCLC, with HOP-62 NSCLC and with HT29 colon was > 100 µM in each case.
On to `O=C(O)c1cc2c(ncc3c(=O)n(-c4ccccc4)[nH]c32)s1`, for which the TGI in the assay with KM12 colon, in the assay with HOP-92 NSCLC, in the assay on U251 CNS, with RXF 393 renal, with ACHN renal and in the assay on CCRF-CEM leukemia was > 100 µM each time. Besides, the TGI in the assay on OVCAR-3 ovarian, with NCI-H23 lung, in the assay with HCT-15 colon, in the assay on SR leukemia, in the assay with OVCAR-5 ovarian and in the assay on OVCAR-4 ovarian was > 100 µM each time. In addition, the TGI in the assay with MALME-3M melanoma, in the assay on NCI-H522 lung, in the assay on A549 NSCLC, in the assay with HOP-62 NSCLC and in the assay with HT29 colon was > 100 µM in each case.
With `COc1c(Br)cc2c(c1OC)C(Br)CCC(Br)(Br)C2=O` (stereo not given), the TGI was found to be 14.6 µM in the assay on KM12 colon; 12.5 µM in the assay with HOP-92 NSCLC; 5.91 µM in the assay on U251 CNS; 1.82 µM in the assay with RXF 393 renal; 5.21 µM with ACHN renal; 2.91 µM with OVCAR-3 ovarian. The TGI in the assay on NCI-H23 lung worked out at 3.71 µM; with HCT-15 colon it was 1.63 µM; in the assay with SR leukemia it was 1.29 µM; in the assay on OVCAR-5 ovarian, 13.6 µM; in the assay with OVCAR-4 ovarian, 6.87 µM; in the assay with MALME-3M melanoma, 10.8 µM. Moreover, the TGI worked out at 6.26 µM with SK-MEL-5 melanoma; 22.2 µM with SNB-75 CNS; 2 µM in the assay on NCI-H522 lung; 16.2 µM with A549 NSCLC; 4.81 µM in the assay with HOP-62 NSCLC; 3.71 µM with HT29 colon.
Regarding `OCCNCCN1CCN(CCCN2c3ccccc3Sc3ccc(C(F)(F)F)cc32)CC1`, the TGI in the assay on KM12 colon is 45.1 µM; in the assay on U251 CNS, 35.8 µM; with RXF 393 renal, 47.5 µM; in the assay on ACHN renal, 43.2 µM; in the assay with CCRF-CEM leukemia, > 100 µM; with OVCAR-3 ovarian it was 40.3 µM. The TGI was 51 µM in the assay on NCI-H23 lung; 37.3 µM in the assay on HCT-15 colon; > 100 µM in the assay on SR leukemia; 43.5 µM with OVCAR-5 ovarian; 48.8 µM in the assay with OVCAR-4 ovarian; 45 µM in the assay with MALME-3M melanoma. The TGI in the assay on SK-MEL-5 melanoma was > 100 µM; with NCI-H522 lung, 36.6 µM; with A549 NSCLC, 48.6 µM; in the assay on HOP-62 NSCLC, 38.1 µM; with HT29 colon it was 28.3 µM.
On to `O=C(CCl)NNC1=Nc2ccc(Cl)cc2SC1`, for which the TGI with KM12 colon was determined as 9.94 µM; in the assay with HOP-92 NSCLC it was 3.02 µM; with U251 CNS, 4.28 µM; in the assay with RXF 393 renal, 3.44 µM; in the assay on CCRF-CEM leukemia, 3.08 µM; with OVCAR-3 ovarian, 3.28 µM. For the same compound, the TGI in the assay on NCI-H23 lung worked out at 6.27 µM; in the assay on HCT-15 colon it was 3.97 µM; with OVCAR-5 ovarian it was 4.16 µM; in the assay on OVCAR-4 ovarian, 5.63 µM; in the assay on MALME-3M melanoma, 3.31 µM; in the assay with SK-MEL-5 melanoma it was 6.54 µM. For the same compound, the TGI came to 5.14 µM in the assay on SNB-75 CNS; 1.85 µM in the assay on NCI-H522 lung; 26.2 µM in the assay on A549 NSCLC; 31.8 µM in the assay with HOP-62 NSCLC; 3.4 µM in the assay on HT29 colon.
Turning to `Cc1ccc(C2OC(COCc3ccc(Cl)cc3)C(OCc3ccc(Cl)cc3)C2O)cc1` (stereo not given), the TGI in the assay on KM12 colon is 71.2 µM; in the assay on HOP-92 NSCLC, 15.6 µM; in the assay on U251 CNS it was 34.2 µM; in the assay with RXF 393 renal, 10.8 µM; in the assay on ACHN renal it was 41.8 µM; in the assay on OVCAR-3 ovarian, 27.5 µM. Further, the TGI was 40.3 µM in the assay on NCI-H23 lung; > 100 µM in the assay on HCT-15 colon; > 100 µM in the assay on SR leukemia; > 100 µM with OVCAR-5 ovarian; 40.9 µM with OVCAR-4 ovarian; 25.9 µM with SK-MEL-5 melanoma. The TGI with A549 NSCLC amounted to 30.1 µM; with HT29 colon, 26.2 µM.
